# Values of other authors, collected in patent US20250360174A1, “ENGINEERED BACTERIA, ENGINEERED BIOFILMS, AND LIVING MATERIALS BASED ON BACILLUS SUBTILIS” (EAST CHINA UNIVERSITY OF SCIENCE AND TECHNOLOGY, priority 2024, published 2025).
# Tested on: RAW264.7 cells
structure (smiles),measurement,value
"O[C@H]1[C@@H]2OC[C@H](O[C@H]1O)[C@H]2O [L-AHG, 3,6-anhydro-α-L-galactose]",anti-inflammatory activity,has been shown to have anti-inflammatory activity
